Inconclusive results are not listed.
System: nude mice, LX-1 lung xenograft intrarenal, tumor weight T/C
Experiment: NCI In Vivo Anticancer Drug Screen. Data for tumor model Human Lung LX-1 Xenograft (intrarenal inoculation) in NU/NU Swiss (nude) mice
Conditions: endpoint: mean tumor weight change, higher = larger tumour
Procedure, shortened: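 Compound-treated mice carrying transplanted tumors were compared with vehicle-treated controls. Tumor size was the measured end point, and the value is the treated-group measurement divided by the control-group measurement (T/C).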

[1] = dose: 12.5 mg/kg/injection, schedule: Q01DX010 (sc), vehicle: water
[2] = dose: 25.0 mg/kg/injection, schedule: Q01DX010 (sc), vehicle: water

In the case of `Cc1ccc(S(=O)(=O)OCOS(=O)(=O)c2ccc(C)cc2)cc1`, the T/C (dose: 300.0 mg/kg/injection, schedule: Q04DX003 (sc), vehicle: Klucel (hydroxypropylcellulose) (HPC)) is reported as 79 % of control, the T/C (dose: 600.0 mg/kg/injection, schedule: Q04DX003 (sc), vehicle: Klucel (hydroxypropylcellulose) (HPC)) is reported as 95 % of control and the T/C (dose: 1200.0 mg/kg/injection, schedule: Q04DX003 (sc), vehicle: Klucel (hydroxypropylcellulose) (HPC)) is reported as 74 % of control. The T/C (dose: 2400.0 mg/kg/injection, schedule: Q04DX003 (sc), vehicle: Klucel (hydroxypropylcellulose) (HPC)) was 100 % of control.
With `CCOC(=O)C(N)C[S][Sn]([CH3])([CH3])[Cl]` (centres undefined) the T/C (dose: 18.75 mg/kg/injection, schedule: Q04DX003 (sc), vehicle: saline) was 52 % of control, the T/C (dose: 37.5 mg/kg/injection, schedule: Q04DX003 (sc), vehicle: saline) was 57 % of control and the T/C (dose: 75.0 mg/kg/injection, schedule: Q04DX003 (sc), vehicle: saline) was 54 % of control.
`CCCC(=O)O` was tested, and the T/C (dose: 100.0 mg/kg/injection, schedule: Q01DX010 (sc), vehicle: saline) was 103 % of control, the T/C (dose: 200.0 mg/kg/injection, schedule: Q01DX010 (sc), vehicle: saline) was 77 % of control and the T/C (dose: 400.0 mg/kg/injection, schedule: Q01DX010 (sc), vehicle: saline) was 71 % of control.
With `CN(C)N=Nc1ccccc1` the T/C (dose: 12.5 mg/kg/injection, schedule: Q01DX010 (sc), vehicle: Klucel (hydroxypropylcellulose) (HPC)) was 12 % of control and the T/C (dose: 50.0 mg/kg/injection, schedule: Q01DX010 (sc), vehicle: Klucel (hydroxypropylcellulose) (HPC)) was -98 % of control.
With `C/C=C/C=C1/OC(C)=C(C(C)=O)C1=O` the T/C (dose: 100.0 mg/kg/injection, schedule: Q04DX003 (sc), vehicle: saline with Tween-80) was 107 % of control, the T/C (dose: 200.0 mg/kg/injection, schedule: Q04DX003 (sc), vehicle: saline with Tween-80) was 97 % of control and the T/C (dose: 400.0 mg/kg/injection, schedule: Q04DX003 (sc), vehicle: saline with Tween-80) was 110 % of control. For the same molecule, the T/C (dose: 800.0 mg/kg/injection, schedule: Q04DX003 (sc), vehicle: saline with Tween-80) was 92 % of control.
With `CC1(C)OCC2OC=CC(=O)C2O1` (centres undefined) the T/C (dose: 300.0 mg/kg/injection, schedule: Q04DX003 (sc), vehicle: saline with Tween-80) was 89 % of control.
For `CN(C)CCN1C(=O)c2cccc3cc([N+](=O)[O-])cc(c23)C1=O`, the T/C (dose: 9.0 mg/kg/injection, schedule: Q04DX003 (sc), vehicle: saline with Tween-80) was 94 % of control, the T/C (dose: 18.0 mg/kg/injection, schedule: Q04DX003 (sc), vehicle: saline with Tween-80) was 108 % of control and the T/C (dose: 36.0 mg/kg/injection, schedule: Q04DX003 (sc), vehicle: saline with Tween-80) was 95 % of control.
`C/C=C1\C[C@@H]2C(OC)Nc3cc(O)c(OC)cc3C(=O)N2C1` (some centres undefined) was tested, and the T/C (dose: 0.5 mg/kg/injection, schedule: Q04DX003 (sc), vehicle: saline) was 93 % of control, the T/C (dose: 1.0 mg/kg/injection, schedule: Q04DX003 (sc), vehicle: saline) was 111 % of control and the T/C (dose: 2.0 mg/kg/injection, schedule: Q04DX003 (sc), vehicle: saline) was 107 % of control. For the same molecule, the T/C (dose: 4.0 mg/kg/injection, schedule: Q04DX003 (sc), vehicle: saline) was 96 % of control.
`NC(=O)c1ccc[n+](Cc2c(Cl)cccc2Cl)c1` was tested, and the T/C (dose: 50.0 mg/kg/injection, schedule: Q04DX003 (sc), vehicle: saline) was 115 % of control, the T/C (dose: 100.0 mg/kg/injection, schedule: Q04DX003 (sc), vehicle: saline) was 83 % of control and the T/C (dose: 200.0 mg/kg/injection, schedule: Q04DX003 (sc), vehicle: saline) was 90 % of control.
With `CC(/C=N/N=C(N)N)=N\N=C(N)N` the T/C [1] was 81 % of control, the T/C [2] was 78 % of control and the T/C (dose: 100.0 mg/kg/injection, schedule: Q01DX010 (sc), vehicle: water) was 58 % of control.
`COC1=CC(=O)N(C(=O)C2CSC(C(CO)NC(=O)c3csc(/C=N/O)n3)=N2)C1` (centres undefined) was tested, and the T/C (dose: 225.0 mg/kg/injection, schedule: Q04DX003 (sc), vehicle: Klucel (hydroxypropylcellulose) (HPC)) was 59 % of control, the T/C (dose: 450.0 mg/kg/injection, schedule: Q04DX003 (sc), vehicle: Klucel (hydroxypropylcellulose) (HPC)) was 112 % of control and the T/C (dose: 900.0 mg/kg/injection, schedule: Q04DX003 (sc), vehicle: Klucel (hydroxypropylcellulose) (HPC)) was 87 % of control. For the same molecule, the T/C (dose: 1800.0 mg/kg/injection, schedule: Q04DX003 (sc), vehicle: Klucel (hydroxypropylcellulose) (HPC)) was 50 % of control.
With `CN1N=C(N)c2cn(C3OC(COP(=O)(O)O)C(O)C3O)c3ncnc1c23` (centres undefined) the T/C [1] was 107 % of control, the T/C [2] was 109 % of control and the T/C (dose: 50.0 mg/kg/injection, schedule: Q01DX010 (sc), vehicle: water) was 81 % of control.
In the case of `C=C(C)[C@H]1Cc2c(ccc3c2O[C@@H]2COc4cc(OC)c(OC)cc4[C@@H]2C3=O)O1`, the T/C (dose: 2.0 mg/kg/injection, schedule: Q01DX010 (sc), vehicle: saline with Tween-80) is reported as 286 % of control and the T/C (dose: 4.0 mg/kg/injection, schedule: Q01DX010 (sc), vehicle: saline with Tween-80) is reported as 62 % of control.
